In US20250034139A1, “AMINE COMPOUNDS HAVING ANTI-INFLAMMATORY, ANTIFUNGAL, ANTIPARASITIC, AND ANTICANCER ACTIVITY” (PHARMA CINQ, LLC, priority 2013, published 2025):
Converted amounts (≈) assume the structure as drawn.

Experiments:
THP-1 cells = assay: Example D: LPS-triggered THP-1 cell death assay, acute/5-hour and chronic/48-hour; assay type: cell-based, Human; settings: for Viable cell percent change, Chronic/48-hour, Mean: 10 ng/ml LPS, 0.1 μM test compound; for activity relative to AC in the LPS-triggered THP-1 cell death assay, in words: 0.1 μM, 5-hour and 48-hour time points
Procedure: Compounds of the invention were tested at 0.1 μM versus AC in the LPS-triggered THP-1 cell death assay. Both acute/5-hour and chronic/48-hour phases of cell death were assessed. Compounds were screened in batches with DMSO as the negative control and AC as the high activity control.

[1] = test system: 4T1 murine breast cancer cells; assay: Example S: in vitro anticancer screen, 4T1 cells, Wst1; assay type: cell-based, mouse; settings: Mus musculus, 4T1, 18 h, 18 hr, Wst1; for viability at 1 µM: read-out: 4T1 1 μM, percent of cancer cell survival relative to vehicle treated cells; for viability at 5 µM: read-out: 4T1 5 μM, percent of cancer cell survival relative to vehicle treated cells
Method in brief: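 Read-out is Wst1 absorbance (450 nm, reference 630 nm) after roughly 2 hr dye incubation, giving percent cell survival versus vehicle. Before that, compounds at 1 μM or 5 μM were applied for 18 hr to 4T1 cells plated at 1×10^4 per well.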

[2] = test system: PC-3 prostate cancer cells; assay: Example T: sensitisation of PC-3 cells to doxorubicin, oxaliplatin, paclitaxel or vincristine, Wst1; assay type: cell-based, human; settings: PC-3 cells, 72 hours; for viability at 0.4 µM / viability at 2.5 µM: Homo sapiens, Wst1, vehicle = 100, read-out: No Chemo: percent cell survival; for viability at 0.4 µM: compound 0.4 μM alone; for Doxorubicin 3.5 μM: percent cell survival / Oxaliplatin 100 μM: percent cell survival / Paclitaxel 50 μM: percent cell survival / Vincristine 100 nM: percent cell survival: chemotherapy agent alone normalized to 100%; for viability at 2.5 µM: compound 2.5 μM alone
[3] = test system: Cryptococcus neoformans (serotype D); assay: Example K: Cryptococcus neoformans (serotype D) growth inhibition; assay type: cell-based; settings: Cryptococcus deneoformans, OD of 48 hour reading, 37° C., tested 4 to 60 μM, XLfit
Procedure: Cryptococcus neoformans (serotype D) were plated in 96 well plates with 144 μl/well of 8×10e5 CFU/ml in YM growth medium. Diluted compounds were then added to each well with concentration ranged from 4 to 60 μM as final concentration in duplicates. The plates were inoculated at 37° C. for total of 48 hours. Two readings of OD at 600 nm were measured after 30 and 48 hour treatments.
• 1. Pick a single colony of Cryptococcus from the YM agar plate using the inoculum loop and inoculate into a 125 ml flask containing 25 ml of YM growth medium. • 2. Incubate at 37° C. with shaking at 220 rpm for 24 hours with loosen lid to allow air in and facilitates growth. • 3. Examine an aliquot of the culture under a microscope for yeast cell morphology and lack of bacterial contamination. • 4. Dilute the overnight culture with YM medium at 1:100 dilution and count the number of cells as 1×10^6 cfu/ml. • 5. Make a final concentration of cells suspension at 8×10^5 cfu/ml in YM medium. • 6. Plate 144 μl/well of 8×10^5 cfu/ml cell suspension on 96-well plates. Part-II: Cryptococcus Growth Inhibition Testing with Compounds • 1. From 10 mM DMSO stock solutions, make serial dilutions of compounds to 0.1, 0.2, 0.3, 0.5, 1.0 and 1.5 mM solution. • 2. Add 6 ul each of diluted compound solutions per well in duplicates. The final concentrations were 0, 4, 8, 12, 20, 40 and 60 micromolar. • 3. Incubated all plates at 37° C. overnight (30 hours) with 150 rpm shaking. • 4. Read absorbance at OD600 for each plate. • 5. Leave plates in 37° C. incubator for another day and read absorbance at OD600 again at 48 hours to ensure the inhibitory effect of the compounds. • 6. Calculated the % inhibition and IC50 of each compound against untreated cells.

[4] = test system: PC3 human prostate cancer cells; assay: Example S: in vitro anticancer screen, PC-3 cells, Wst1; assay type: cell-based; settings: Homo sapiens, PC-3, approximately 20 hours, Wst1, read-out: PC-3, percent of cancer cell survival relative to vehicle treated cells
Method in brief: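 Values give percent survival relative to vehicle, read by Wst1 absorbance (450/630 nm) after 2 h dye incubation, in triplicate. Cells were seeded at 2×10^4/well and treated about 20 h with compound at 0.4, 0.5 or 2.5 μM, depending on compound.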

[5] = test system: Candida albicans strain 3153; assay: Example H: Candida albicans growth inhibition (OD 600 nm); assay type: cell-based; settings: for MIC: Candida albicans, 3153, 24 hrs at 30° C., YPD, XLfit, read-out: MIC (uM) (99% of inhibition of fungal growth); for IC50: Candida albicans, 3153, read-out: IC50 (uM) (50% inhibition of fungal growth), 24 hrs at 30° C., YPD, XLfit
Procedure: A single colony of Candida Albicans was grown in 50 ml YPD broth overnight (19 hr). The cells were washed with PBS and 3.5×10^4 CFU/ml of C. Albicans (144 μl/well) in YPD medium were plated in 96 well plates. Test compounds were then added to each well with concentration ranged from 5 to 40 μM as final concentrations. The plates were incubated at 30° C. overnight (24 hrs) and OD at 600 nm was read at the end of incubation as an index of yeast cell density.
Part-I: Preparation of Candida albicans Cells • 1. One day prior to the inoculum preparation, pick a single colony of Candida albicans strain 3153 (lot #61794) from the Sabouraud Dextrose Agar plate using the inoculum loop and inoculate into a 250 mL flask containing 50 ml of YPD growth medium • 2. Incubate at 30° C. with shaking at 150 rpm for at least 18 hours with loosened lid to allow air in and facilitate growth. • 3. Examine an aliquot of the culture under a microscope for Candida cell morphology and lack of bacterial contamination; >95% of Candida cells should be blastoconidia. • 4. Transfer 25 ml the overnight culture into a 50-ml plastic disposable centrifuge tube, and centrifuge at 1000×g for 20 min. • 5. Discard the supernatant and wash the pellet with 4 ml of PBS at three times. Vortex and centrifuge, 1000×g for 10 min. • 6. After the third wash, dispense the pellet with 2 ml PBS and vortex. • 7. Make three 1:10 serial dilutions in sterile PBS (10^−1, 10^−2, 10^−3) from the 2 ml cell suspension using 15 ml culture tubes. The final volume in each tube is 5 ml. • 8. […] Make a 1:4 dilution in YPD medium from the 50-fold dilution of 10^−3 cell suspension for testing compounds. • The final C. albicans cell concentration for the test: 3.5×10^4 CFU/ml • 10. Plated 144 ul/well of the above dilution of cell on 96-well plates. Part-II: C. Albicans Growth Inhibition Testing with Compounds • 1. From 10 mM DMSO stock solutions, make serial dilutions of compounds to 0.13, 0.25, 0.40, 0.55, 0.75 and 1.0 mM solutions • 2. Add 6 ul each of diluted compound solutions per well in duplicates. The final concentrations were 0, 5, 10, 16, 22, 30 and 40 micromolar. • 3. Incubated all plates at 30 C for overnight (˜24 hours). • 4. Read absorbance at OD600 for each plate. • 5. Calculate the % inhibition of each compound against the DMSO treated cell.

[6] = compound 0.4 μM + doxorubicin 3.5 μM
[7] = compound 0.4 μM + oxaliplatin 100 μM
[8] = compound 0.4 μM + paclitaxel 50 μM
[9] = compound 0.4 μM + vincristine 100 nM
[10] = compound 2.5 μM + doxorubicin 3.5 μM
[11] = compound 2.5 μM + oxaliplatin 100 μM
[12] = compound 2.5 μM + paclitaxel 50 μM
[13] = compound 2.5 μM + vincristine 100 nM

| SMILES | IC50 ([3]; read-out: IC50 (concentration for 50% of inhibition)) | MIC ([3]; read-out: MIC (concentration for maximum-99% of inhibition)) | MIC [5] | IC50 [5] | Viable cell percent change, Chronic/48-hour, Mean (THP-1 cells) | activity relative to AC in the LPS-triggered THP-1 cell death assay, in words (THP-1 cells) | viability at 1 µM [1] | viability at 5 µM [1] | viability at 0.4 µM [2] | Doxorubicin 3.5 μM: percent cell survival [2, 6] | Oxaliplatin 100 μM: percent cell survival [2, 7] | Paclitaxel 50 μM: percent cell survival [2, 8] | Vincristine 100 nM: percent cell survival [2, 9] | viability at 0.4 µM [4] | viability at 2.5 µM [2] | Doxorubicin 3.5 μM: percent cell survival [2, 10] | Oxaliplatin 100 μM: percent cell survival [2, 11] | Paclitaxel 50 μM: percent cell survival [2, 12] | Vincristine 100 nM: percent cell survival [2, 13] | viability at 2.5 µM [4] |
| --- | --- | --- | --- | --- | --- | --- | --- | --- | --- | --- | --- | --- | --- | --- | --- | --- | --- | --- | --- | --- |
| COc1ccc(OCCCCCCCCNc2ccnc3ccccc23)cc1 [AD, N-[8-(4-Methoxyphenoxy)octyl]quinolin-4-amine] | 3.98 µM | 45.2 µM (≈ 17.1 µg/mL) | – | – | 26.01% | equivalent activity to AC at both the 5-hour and 48-hour time points | 21.6% | 51.1% | 54.7% | 23.9% | 23.1% | 46.1% | 46.7% | 54.7% | – | – | – | – | – | – |
| CCOCCCOCCCCCCCCNc1ccnc2ccccc12 [AJ, N-[8-(3-Ethoxypropoxy)octyl]quinolin-4-amine] | – | – | 113 µM (≈ 40.7 µg/mL) | 43.2 µM | – | equivalent activity to AC at both the 5-hour and 48-hour time points | 22.4% | 21.1% | 18.5% | 33.1% | 22.5% | 20.8% | 20.1% | 18.5% | – | – | – | – | – | – |
| CCCOCCOCCCCCCCCNc1ccnc2ccccc12 [BD, N-[8-(2-Propoxyethoxy)octyl]quinolin-4-amine] | – | – | 134 µM (≈ 48 µg/mL) | 37.5 µM | – | equivalent activity to AC at both the 5-hour and 48-hour time points | 25.5% | 27.7% | 29.3% | 66.1% | 61.3% | 28.4% | 33.3% | 29.3% | – | – | – | – | – | – |

Further lines, with some results ahead:

| IC50 ([3]; read-out: IC50 (concentration for 50% of inhibition)) | MIC ([3]; read-out: MIC (concentration for maximum-99% of inhibition)) | MIC [5] | IC50 [5] | SMILES | Viable cell percent change, Chronic/48-hour, Mean (THP-1 cells) | activity relative to AC in the LPS-triggered THP-1 cell death assay, in words (THP-1 cells) | viability at 1 µM [1] | viability at 5 µM [1] | viability at 0.4 µM [2] | Doxorubicin 3.5 μM: percent cell survival [2, 6] | Oxaliplatin 100 μM: percent cell survival [2, 7] | Paclitaxel 50 μM: percent cell survival [2, 8] | Vincristine 100 nM: percent cell survival [2, 9] | viability at 0.4 µM [4] | viability at 2.5 µM [2] | Doxorubicin 3.5 μM: percent cell survival [2, 10] | Oxaliplatin 100 μM: percent cell survival [2, 11] | Paclitaxel 50 μM: percent cell survival [2, 12] | Vincristine 100 nM: percent cell survival [2, 13] | viability at 2.5 µM [4] |
| --- | --- | --- | --- | --- | --- | --- | --- | --- | --- | --- | --- | --- | --- | --- | --- | --- | --- | --- | --- | --- |
| – | – | 69.8 µM (≈ 22.4 µg/mL) | 46.1 µM | c1ccc(OCCCCCCNc2ccnc3ccccc23)cc1 [AR, N-(6-Phenoxyhexyl)quinolin-4-amine] | 28.75% | equivalent activity to AC at both the 5-hour and 48-hour time points | 25.4% | 47% | 57% | 22.4% | 24.1% | 54.1% | 24.2% | 57% | – | – | – | – | – | – |
| – | – | 99.7 µM (≈ 37.1 µg/mL) | 50.9 µM | CCCCCCOCCCOCCCCCNc1ccnc2ccccc12 [BB, N-{5-[3-(Hexyloxy)propoxy]pentyl}quinolin-4-amine] | 0.65% | – | 59.6% | 41.1% | – | – | – | – | – | – | 16.3% | 20.4% | 24.7% | 25% | 17.2% | 16.3% |
| – | – | 108 µM (≈ 40.1 µg/mL) | 45.7 µM | CCCCCCOCCCCCOCCCNc1ccnc2ccccc12 [BC, N-{3-[5-(Hexyloxy)pentyloxy]propyl}quinolin-4-amine] | 6.40% | – | 96.9% | 47.2% | – | – | – | – | – | – | 26% | 32.6% | 32.3% | 29.8% | 28.9% | 26% |
| – | – | 30.1 µM (≈ 11.4 µg/mL) | 18.1 µM | COc1cccc(OCCCCCCCCNc2ccnc3ccccc23)c1 [BH, N-[8-(3-Methoxyphenoxy)octyl]quinolin-4-amine] | 34.77% | equivalent activity to AC at both the 5-hour and 48-hour time points | 21% | 19.3% | 98.5% | 35.7% | 30.6% | 61% | 71.6% | 98.5% | – | – | – | – | – | – |
